From paper PMC6355875 (Scientific Reports, 2019)
pEC50: −log10 of the molar value.

Experiments:
Type in all cases: cell-based
hPPAR-γ = target: T1, hPPAR-γ (Homo sapiens, UniProt P37231); experiment: GAL4-DBD hPPARγ/LBD luciferase reporter assay in HEK293T cells; conditions: activation, overnight
T1 construct: expressed in transfected cells; host or cells: HEK293T
T1 sequence (P37231 184-477 isoform P37231-2): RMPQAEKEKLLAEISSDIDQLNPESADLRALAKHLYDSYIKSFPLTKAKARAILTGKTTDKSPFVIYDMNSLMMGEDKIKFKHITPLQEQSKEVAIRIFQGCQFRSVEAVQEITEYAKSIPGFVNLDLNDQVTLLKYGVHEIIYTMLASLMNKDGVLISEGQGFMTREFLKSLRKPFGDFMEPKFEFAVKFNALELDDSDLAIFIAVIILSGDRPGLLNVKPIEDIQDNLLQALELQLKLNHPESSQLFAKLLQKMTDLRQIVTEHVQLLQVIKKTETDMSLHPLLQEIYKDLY
Experimental: (§1) A GAL4-DNA Binding Domain (GAL4-DBD) fusion protein was constructed for each PPAR family member. To assess compound activity, each construct was co-transfected into HEK293T cells (American Type Culture Collection; Manassass, VA) along with the reporter construct, pGL5 (Promega) using Fugene 6 (Promega) as a transfection reagent and the manufacturer’s protocol. An eleven point dilution series of each compound was added to the cells and incubated overnight. Luciferase levels were then determined following the addition of Bright-Glo (Promega) using the manufacturer’s recommendations.

hPPAR-α = target: T2, hPPAR-α (Homo sapiens, UniProt Q07869); experiment: GAL4-DBD hPPARα/LBD luciferase reporter assay in HEK293T cells; conditions: activation, overnight
T2 construct: expressed in transfected cells; host or cells: HEK293T
T2 sequence (Q07869 175-468): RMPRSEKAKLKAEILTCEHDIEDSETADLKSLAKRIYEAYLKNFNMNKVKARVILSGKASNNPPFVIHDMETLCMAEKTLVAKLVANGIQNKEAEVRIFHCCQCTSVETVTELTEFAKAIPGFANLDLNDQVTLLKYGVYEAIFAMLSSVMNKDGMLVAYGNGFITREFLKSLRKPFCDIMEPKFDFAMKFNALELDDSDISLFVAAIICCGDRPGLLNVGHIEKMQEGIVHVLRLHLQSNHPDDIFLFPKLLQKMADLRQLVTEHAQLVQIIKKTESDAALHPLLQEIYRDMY
Experimental: as §1

hPPAR-δ = target: T3, hPPAR-δ (Homo sapiens, UniProt Q03181); experiment: GAL4-DBD hPPARδ/LBD luciferase reporter assay in HEK293T cells; conditions: for pEC50: activation, HEK293T reporter, overnight; for hPPAR subtype profile: from EC50 on hPPAR-δ, -α, -γ
T3 construct: expressed in transfected cells; host or cells: HEK293T
T3 sequence (Q03181 147-441): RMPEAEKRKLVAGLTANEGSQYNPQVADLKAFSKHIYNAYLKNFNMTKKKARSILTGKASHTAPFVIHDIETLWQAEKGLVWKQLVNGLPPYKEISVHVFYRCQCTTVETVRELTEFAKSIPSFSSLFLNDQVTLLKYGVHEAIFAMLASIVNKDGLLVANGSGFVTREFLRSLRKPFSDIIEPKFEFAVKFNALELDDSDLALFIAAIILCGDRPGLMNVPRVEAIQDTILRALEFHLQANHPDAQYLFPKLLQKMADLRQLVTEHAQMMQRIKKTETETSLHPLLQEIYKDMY
Experimental: as §1

Row | Compound | pEC50 (hPPAR-δ) | hPPAR subtype profile (hPPAR-δ) | pEC50 (hPPAR-γ) | pEC50 (hPPAR-α)
1 | Cc1cccc(OCCNC(=O)COc2ccc(CC(=O)O)cc2)c1 [GNF-0242, CC1=CC=CC(OCCNC(=O)COC2=CC=C(CC(O)=O)C=C2)=C1] |  |  | < 5.00 | < 5.00
2 | O=C(COc1ccc(C(=O)O)cc1)NC(c1ccccc1)c1ccc(Cl)cc1 (centres unmarked) [GNF-0248, OC(=O)C1=CC=C(OCC(=O)NC(C2=CC=CC=C2)C2=CC=C(Cl)C=C2)C=C1] | 5.12 |  | < 5.00 | 5.15
3 | Cc1ccc(C(=O)Nc2cccc(CNCc3ccc(OC(F)(F)F)cc3)c2)cc1 [GNF-0341, CC1=CC=C(C=C1)C(=O)NC1=CC=CC(CNCC2=CC=C(OC(F)(F)F)C=C2)=C1] | 7.96 | agonists of hPPAR-δ and hPPAR-γ only | 5.90 | < 5.00
4 | O=C(O)Cc1csc(SCc2cc(F)cc3c2OC(c2ccccc2)OC3)n1 (centres unmarked) [GNF-1051, OC(=O)CC1=CSC(SCC2=CC(F)=CC3=C2OC(OC3)C2=CC=CC=C2)=N1] | 5.11 |  | < 5.00 | 5.13
5 | CCCOc1c(/C=C/C(=O)c2ccc(SCC(=O)O)c(OC)c2)cccc1OCC [GNF-1676, CCCOC1=C(OCC)C=CC=C1C=CC(=O)C1=CC=C(SCC(O)=O)C(OC)=C1] | 5.08 |  | 5.89 | 5.21
6 | O=C(NCc1ccc(COCC(F)(F)F)cc1)c1cc(-c2ccccc2)[nH]n1 [GNF-3632, FC(F)(F)COCC1=CC=C(CNC(=O)C2=NNC(=C2)C2=CC=CC=C2)C=C1] | 8.15 | agonists of hPPAR-δ and hPPAR-α only | < 5.00 | 5.26
7 | CCOc1cc(/C=C/C(=O)O)ccc1OCc1ccc(C(C)(C)C)cc1 [GNF-4516, CCOC1=CC(C=CC(O)=O)=CC=C1OCC1=CC=C(C=C1)C(C)(C)C] | 5.17 |  | < 5.00 | 5.63
8 | COc1ccc(C(=O)/C=C/c2c(C)nn(-c3ccccc3)c2Cl)cc1CSCC(=O)O [GNF-4909, COC1=CC=C(C=C1CSCC(O)=O)C(=O)C=CC1=C(Cl)N(N=C1C)C1=CC=CC=C1] | 5.08 |  | 5.74 | 6.08
9 | COCCCn1c(SCc2cccc(C(=O)O)c2)nc2sc3c(c2c1=O)CCCS3 [GNF-5154, COCCCN1C(=O)C2=C(SC3=C2CCCS3)N=C1SCC1=CC=CC(=C1)C(O)=O] | 5.15 |  |  | 
10 | O=C(Nc1ccccc1O)C1CCN(C(=O)COc2ccc(F)cc2)CC1 [GNF-5891, OC1=CC=CC=C1NC(=O)C1CCN(CC1)C(=O)COC1=CC=C(F)C=C1] | 7.89 |  | 5.14 | < 5.00
11 | COc1ccc(N2CCN(C(=O)CSc3nnc(COc4ccc(Cl)cc4C)[nH]3)CC2)cc1 [GNF-7486, COC1=CC=C(C=C1)N1CCN(CC1)C(=O)CSC1=NN=C(COC2=CC=C(Cl)C=C2C)N1] | 7.74 |  | < 5.00 | < 5.00
12 | COc1ccc(CNCc2ccc(Oc3cccnc3)c(F)c2)cc1O [GNF-8065, COC1=CC=C(CNCC2=CC=C(OC3=CC=CN=C3)C(F)=C2)C=C1O] |  |  | < 5.00 | < 5.00
13 | CC(C(=O)Nc1ccc(SC(F)F)cc1)N1CC=C(c2ccc(O)cc2)CC1 (centres unmarked) [GNF-8208, CC(N1CCC(=CC1)C1=CC=C(O)C=C1)C(=O)NC1=CC=C(SC(F)F)C=C1] | 5.10 |  | < 5.00 | < 5.00
14 | O=C(CN1CCN(c2ccc(O)cc2)CC1)NCC1(N2CCOCC2)CCCCC1 [GNF-8501, OC1=CC=C(C=C1)N1CCN(CC(=O)NCC2(CCCCC2)N2CCOCC2)CC1] | 8.22 |  | < 5.00 | < 5.00
15 | Cc1cc(C(=O)COc2ccc(C(=O)O)cc2)c(C)n1CCC1=CCCCC1 [GNF-9057, CC1=CC(C(=O)COC2=CC=C(C=C2)C(O)=O)=C(C)N1CCC1=CCCCC1] | 5.13 |  | 5.07 | 5.33
16 | O=C(Nc1ccccc1O)C1CCN(C(=O)c2ccc(OCC3CCCO3)cc2)CC1 (centres unmarked) [GNF-9448, OC1=CC=CC=C1NC(=O)C1CCN(CC1)C(=O)C1=CC=C(OCC2CCCO2)C=C1] | 6.05 |  | 6.03 | 5.15
17 | Cc1ccc(-c2nc(SCCCC(=O)N3CCOCC3)[nH]c2-c2ccc(C)cc2)cc1 [GNF-9820, CC1=CC=C(C=C1)C1=C(N=C(N1)SCCCC(=O)N1CCOCC1)C1=CC=C(C)C=C1] | 7.92 |  | < 5.00 | < 5.00
18 | Cc1cc(C(=O)COC(=O)c2ccc(O)cc2O)c(C)n1Cc1ccc(F)cc1 [GNF-9969, CC1=CC(C(=O)COC(=O)C2=CC=C(O)C=C2O)=C(C)N1CC1=CC=C(F)C=C1] | 5.02 |  | 6.00 | 5.16

More lines, main results first:

Row | pEC50 (hPPAR-δ) | hPPAR subtype profile (hPPAR-δ) | Compound | pEC50 (hPPAR-γ) | pEC50 (hPPAR-α)
19 | 5.36 |  | COc1cc(/C=C2/S/C(=N/c3ccccc3)NC2=O)ccc1OCc1cccc(C(=O)O)c1 [GNF-5758, COC1=CC(C=C2SC(NC2=O)=NC2=CC=CC=C2)=CC=C1OCC1=CC=CC(=C1)C(O)=O] | 5.01 | 5.16
20 | 7.92 |  | O=C(Nc1cccc(CNCC(c2cccs2)N2CCOCC2)c1)c1ccc(Cl)cc1 (centres unmarked) [GNF-6029, ClC1=CC=C(C=C1)C(=O)NC1=CC=CC(CNCC(N2CCOCC2)C2=CC=CS2)=C1] | < 5.00 | < 5.00
21 | 8.10 |  | CCOc1cccc(/C=N/c2cccc(-c3csc(/N=C/c4cccc(OCC)c4O)n3)c2)c1O [GNF-6878, CCOC1=CC=CC(C=NC2=NC(=CS2)C2=CC=CC(=C2)N=CC2=CC=CC(OCC)=C2O)=C1O] | < 5.00 | < 5.00
22 | 5.43 |  | O=C(OCC(=O)c1ccc(O)cc1O)c1ccc(COc2ccc3ccccc3c2)o1 [GNF-6928, OC1=CC=C(C(=O)COC(=O)C2=CC=C(COC3=CC=C4C=CC=CC4=C3)O2)C(O)=C1] | 5.42 | 5.16
23 | 7.72 | agonists of hPPAR-δ and hPPAR-α only | COc1cc(CNCc2cc(C)on2)ccc1OCC(=O)Nc1ccc(Br)cc1 [GNF-6952, COC1=CC(CNCC2=NOC(C)=C2)=CC=C1OCC(=O)NC1=CC=C(Br)C=C1] | < 5.00 | 5.12
24 | 5.14 |  | O=C(NCCCCOc1ccc(F)cc1)c1ccc([N+](=O)[O-])c(O)c1 [GNF-7176, OC1=CC(=CC=C1[N+]([O-])=O)C(=O)NCCCCOC1=CC=C(F)C=C1] | < 5.00 | < 5.00
25 | 5.34 |  | O=[N+]([O-])c1cc(S(=O)(=O)N2CCCC2)ccc1OCC(O)CNCc1ccc(F)cc1 (centres unmarked) [GNF-9594, OC(CNCC1=CC=C(F)C=C1)COC1=CC=C(C=C1[N+]([O-])=O)S(=O)(=O)N1CCCC1] | < 5.00 | < 5.00
